Reference: ChEMBL document CHEMBL1201862, “PubChem BioAssay data set” (2004)
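Growth conditions: 96-well plates. Treatment: test compound, 48 hours, 5 concentrations. Analysis: linear interpolation between bracketing concentrations; unreached endpoints set to highest concentration. Abbreviation: GI50, concentration required for 50% inhibition of growth.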 Activity calls are given as the source filed them. Cut-off read from the data, not from the text of the source: active = GI50 up to about 1.1 µM and inactive = higher.

Tests used:
Assay in all cases: NCI anticancer screen, dose series, 48 h
786-0 = test system: 786-0
A498 = test system: A498
A549 = test system: A549
ACHN = test system: ACHN
CAKI-1 = test system: CAKI-1
CCRF-CEM = test system: CCRF-CEM
COLO 205 = test system: COLO 205
DLD-1 = test system: DLD-1
DMS-114 = test system: DMS-114
EKVX = test system: EKVX
HCC 2998 = test system: HCC 2998
HCT-116 = test system: HCT-116
HCT-15 = test system: HCT-15
HL-60 = test system: HL-60
HOP-18 = test system: HOP-18
HOP-62 = test system: HOP-62
HOP-92 = test system: HOP-92
HT-29 = test system: HT-29
IGROV-1 = test system: IGROV-1
K562 = test system: K562
KM-20L2 = test system: KM-20L2
KM12 = test system: KM12
LOX IMVI = test system: LOX IMVI
LXFL 529 = test system: LXFL 529
M14 = test system: M14
M19-MEL = test system: M19-MEL
MOLT-4 = test system: MOLT-4
Malme-3M = test system: Malme-3M
NCI-H226 = test system: NCI-H226
NCI-H23 = test system: NCI-H23
NCI-H460 = test system: NCI-H460
NCI-H522 = test system: NCI-H522
OVCAR-3 = test system: OVCAR-3
OVCAR-4 = test system: OVCAR-4
OVCAR-5 = test system: OVCAR-5
OVCAR-8 = test system: OVCAR-8
RPMI-8226 = test system: RPMI-8226
RXF 393 = test system: RXF 393
SF-268 = test system: SF-268
SF-295 = test system: SF-295
SF-539 = test system: SF-539
SK-MEL-2 = test system: SK-MEL-2
SK-MEL-5 = test system: SK-MEL-5
SK-OV-3 = test system: SK-OV-3
SN12C = test system: SN12C
SNB-19 = test system: SNB-19
SNB-78 = test system: SNB-78
SR = test system: SR
SW-620 = test system: SW-620
TK-10 = test system: TK-10
U-251 = test system: U-251
UACC-257 = test system: UACC-257
UACC-62 = test system: UACC-62
UO-31 = test system: UO-31
DMS-273 = test system: DMS-273
SK-MEL-28 = test system: SK-MEL-28
SNB-75 = test system: SNB-75
XF498 = test system: XF498

## Nn1c(S)nnc1N/N=C1/C(=O)Nc2c(Cl)cc(Cl)cc21
786-0
  GI50: 97.3 µM (inactive)
A498
  GI50: 65.5 µM (inactive)
A549
  GI50: > 100 µM (inactive)
ACHN
  GI50: 76.9 µM (inactive)
CAKI-1
  GI50: 69 µM (inactive)
CCRF-CEM
  GI50: 37.1 µM (inactive)
COLO 205
  GI50: > 100 µM (inactive)
DLD-1
  GI50: > 100 µM (inactive)
DMS-114
  GI50: > 100 µM (inactive)
EKVX
  GI50: > 100 µM (inactive)
HCC 2998
  GI50: 58.2 µM (inactive)
HCT-116
  GI50: > 100 µM (inactive)
HCT-15
  GI50: > 100 µM
HL-60
  GI50: 69.2 µM (inactive)
HOP-18
  GI50: > 100 µM (inactive)
HOP-62
  GI50: 50.4 µM (inactive)
HOP-92
  GI50: 73.1 µM (inactive)
HT-29
  GI50: > 100 µM (inactive)
IGROV-1
  GI50: 92.9 µM (inactive)
K562
  GI50: 31.2 µM (inactive)
KM-20L2
  GI50: 81.8 µM (inactive)
KM12
  GI50: > 100 µM (inactive)
LOX IMVI
  GI50: 48.5 µM (inactive)
LXFL 529
  GI50: 59.7 µM (inactive)
M14
  GI50: > 100 µM (inactive)
M19-MEL
  GI50: > 100 µM (inactive)
MOLT-4
  GI50: 37.2 µM (inactive)
Malme-3M
  GI50: > 100 µM (inactive)
NCI-H226
  GI50: 52.1 µM (inactive)
NCI-H23
  GI50: > 100 µM (inactive)
NCI-H460
  GI50: > 100 µM (inactive)
NCI-H522
  GI50: 95.1 µM (inactive)
OVCAR-3
  GI50: > 100 µM (inactive)
OVCAR-4
  GI50: > 100 µM (inactive)
OVCAR-5
  GI50: > 100 µM (inactive)
OVCAR-8
  GI50: > 100 µM (inactive)
RPMI-8226
  GI50: > 100 µM (inactive)
RXF 393
  GI50: 17.9 µM (inactive)
SF-268
  GI50: > 100 µM (inactive)
SF-295
  GI50: > 100 µM (inactive)
SF-539
  GI50: > 100 µM (inactive)
SK-MEL-2
  GI50: > 100 µM (inactive)
SK-MEL-5
  GI50: > 100 µM (inactive)
SK-OV-3
  GI50: 37.2 µM (inactive)
SN12C
  GI50: 94.8 µM (inactive)
SNB-19
  GI50: 76 µM (inactive)
SNB-78
  GI50: > 100 µM (inactive)
SR
  GI50: 38.3 µM (inactive)
SW-620
  GI50: > 100 µM (inactive)
TK-10
  GI50: > 100 µM (inactive)
U-251
  GI50: > 100 µM (inactive)
UACC-257
  GI50: > 100 µM (inactive)
UACC-62
  GI50: > 100 µM (inactive)
UO-31
  GI50: 47.6 µM (inactive)

## O=C(c1ccncc1)n1nc(-c2ccccc2)c(/N=N/c2ccc([N+](=O)[O-])cc2)c1-c1ccccc1
786-0
  GI50: > 100 µM (inactive)
A498
  GI50: > 100 µM (inactive)
A549
  GI50: 55.7 µM (inactive)
CAKI-1
  GI50: 78.5 µM (inactive)
CCRF-CEM
  GI50: > 10 µM (inactive)
COLO 205
  GI50: 79.8 µM (inactive)
DLD-1
  GI50: > 100 µM (inactive)
DMS-114
  GI50: 24.4 µM (inactive)
DMS-273
  GI50: > 100 µM (inactive)
EKVX
  GI50: 3.27 µM (inactive)
HCC 2998
  GI50: 71.3 µM (inactive)
HCT-116
  GI50: 73.6 µM (inactive)
HL-60
  GI50: 89.3 µM (inactive)
HOP-62
  GI50: 39.4 µM (inactive)
HOP-92
  GI50: 27.5 µM (inactive)
HT-29
  GI50: 38.7 µM (inactive)
IGROV-1
  GI50: > 100 µM (inactive)
K562
  GI50: 54.7 µM (inactive)
KM12
  GI50: 34.8 µM (inactive)
LXFL 529
  GI50: 13.1 µM (inactive)
M14
  GI50: 92 µM (inactive)
M19-MEL
  GI50: > 100 µM (inactive)
MOLT-4
  GI50: 48.6 µM (inactive)
Malme-3M
  GI50: 90.6 µM (inactive)
NCI-H226
  GI50: 2.37 µM (inactive)
NCI-H23
  GI50: 22.6 µM (inactive)
NCI-H522
  GI50: 66.7 µM (inactive)
OVCAR-3
  GI50: 50.9 µM (inactive)
OVCAR-4
  GI50: 15 µM (inactive)
OVCAR-8
  GI50: 91.2 µM (inactive)
RPMI-8226
  GI50: 28.4 µM (inactive)
SF-268
  GI50: 49.5 µM (inactive)
SF-295
  GI50: 44.7 µM (inactive)
SF-539
  GI50: 89.5 µM (inactive)
SK-MEL-28
  GI50: > 100 µM (inactive)
SK-MEL-2
  GI50: 77.8 µM (inactive)
SK-MEL-5
  GI50: 27.3 µM (inactive)
SK-OV-3
  GI50: 94.8 µM (inactive)
SN12C
  GI50: > 100 µM (inactive)
SNB-19
  GI50: 31.6 µM (inactive)
SNB-75
  GI50: 12.6 µM (inactive)
SNB-78
  GI50: 14.8 µM (inactive)
SR
  GI50: 45.3 µM (inactive)
SW-620
  GI50: > 100 µM (inactive)
TK-10
  GI50: 57.8 µM (inactive)
UACC-257
  GI50: 92.3 µM (inactive)
UACC-62
  GI50: 90.8 µM (inactive)
UO-31
  GI50: 15.9 µM (inactive)
XF498
  GI50: 57.8 µM (inactive)

## CCCC(=O)c1ccc2c(ccc(=O)n2C)c1
786-0
  GI50: > 100 µM (inactive)
A498
  GI50: 83 µM (inactive)
A549
  GI50: > 100 µM (inactive)
CAKI-1
  GI50: 52.7 µM (inactive)
CCRF-CEM
  GI50: > 100 µM (inactive)
COLO 205
  GI50: > 100 µM (inactive)
DLD-1
  GI50: > 100 µM (inactive)
DMS-114
  GI50: 31.6 µM (inactive)
DMS-273
  GI50: 66.2 µM (inactive)
EKVX
  GI50: 42.2 µM (inactive)
HCC 2998
  GI50: > 100 µM (inactive)
HCT-116
  GI50: > 100 µM (inactive)
HCT-15
  GI50: > 100 µM
HL-60
  GI50: > 100 µM (inactive)
HOP-18
  GI50: 88.1 µM (inactive)
HOP-62
  GI50: > 100 µM (inactive)
HOP-92
  GI50: 46.2 µM (inactive)
HT-29
  GI50: > 100 µM (inactive)
IGROV-1
  GI50: > 100 µM (inactive)
K562
  GI50: > 100 µM (inactive)
KM-20L2
  GI50: > 100 µM (inactive)
KM12
  GI50: > 100 µM (inactive)
LOX IMVI
  GI50: > 100 µM (inactive)
LXFL 529
  GI50: 84.5 µM (inactive)
M14
  GI50: > 100 µM (inactive)
M19-MEL
  GI50: > 100 µM (inactive)
MOLT-4
  GI50: > 100 µM (inactive)
Malme-3M
  GI50: > 100 µM (inactive)
NCI-H226
  GI50: 31 µM (inactive)
NCI-H23
  GI50: > 100 µM (inactive)
NCI-H460
  GI50: > 100 µM (inactive)
NCI-H522
  GI50: 31.9 µM (inactive)
OVCAR-3
  GI50: > 100 µM (inactive)
OVCAR-4
  GI50: 66.7 µM (inactive)
OVCAR-5
  GI50: > 100 µM (inactive)
OVCAR-8
  GI50: > 100 µM (inactive)
RPMI-8226
  GI50: > 100 µM (inactive)
SF-268
  GI50: > 100 µM (inactive)
SF-295
  GI50: > 100 µM (inactive)
SF-539
  GI50: > 100 µM (inactive)
SK-MEL-28
  GI50: > 100 µM (inactive)
SK-MEL-2
  GI50: > 100 µM (inactive)
SK-MEL-5
  GI50: 72.9 µM (inactive)
SK-OV-3
  GI50: > 100 µM (inactive)
SN12C
  GI50: > 100 µM (inactive)
SNB-19
  GI50: > 100 µM (inactive)
SNB-75
  GI50: 27.2 µM (inactive)
SW-620
  GI50: > 100 µM (inactive)
TK-10
  GI50: > 100 µM (inactive)
U-251
  GI50: > 100 µM (inactive)
UACC-62
  GI50: 24.3 µM (inactive)
